These compounds were tested against hERG potassium ion channel (Homo sapiens, UniProt Q12809) (assay: Blockade of the hERG potassium ion channel (whole cell patch clamp)). Settings: HEK293 cells stably overexpressing hERG, pH 7.4, tail current, read-out: The percentage of the inhibition to the hERG current at the solubility of 3 μM (n = 2).
Type: cell-based
Protocol: The effect of the compound of the present invention on possible arrhythmias was assessed by determining the blockade of the hERG potassium ion channel.
The experiment method was summarized as follows: • Extracellular fluid: 140 mM NaCl, 3.5 mM KCl, 1 mM MgCl2, 2 mM CaCl2, 10 mM D-glucose, 10 mM HEPES, 1.25 mM NaH2PO4, pH=7.4. • Electrode internal solution: 20 mM KCl, 115 mM K-aspartate, 1 mM MgCl2, 5 mM EGTA, 10 mM HEPES, 2 mM Na2-ATP, pH=7.2. • Compound solution: the compound to be tested was dissolved in DMSO and prepared into a stock solution having a concentration of 10 mM, then diluted into the concentration of 3 mM with DMSO, and then diluted into a solution having a concentration of 3 μM with the extracellular solution for subsequent use. • Cell culture: the HEK293 cell line with the stable hERG potassium channel overexpression (Creacell, Cat. No. A-0320) was cultured in a DMEM medium (Gibco, Cat. No. 11995-065) containing […] (Gibco, Cat. No. 1428478) and 0.8 mg/mL G418 (Amresco, Cat. No. E859-5G) at the culture temperature of 37° C. under the carbon dioxide concentration of […]. The spent medium was removed and the cells were washed once with PBS (Gibco, Cat. No. 1009-141). Then 1 mL TrypLE™ Express solution (Gibco, Cat. No. 12604021) was added and the cells were incubated at 37° C. […]. When the cells were detached from the bottom of the dish, 5 mL of complete medium preheated at 37° C. was added. The cell suspension was transferred to a sterile centrifuge tube and centrifuged at 1000 rpm for 5 minutes before cell collection. Cells were inoculated in 6 cm cell culture dishes at the cell inoculation volume of 2.5*10^5 per dish (final volume: 5 mL). Before the patch clamp detection experiment, 3*10^3 cells were plated on the cover slips, cultured in 24-well plates (final volume: 500 μL), and detected 18 hours later. • Voltage stimulation protocol by recording the whole-cell hERG potassium current with the whole cell patch clamp: after forming a whole-cell seal, the cell membrane voltage was clamped at −80 mV. The clamping voltage was depolarized from −80 mV to −50 mV and maintained for 0.5 seconds (as leakage current detection), then stepped to 30 mV and maintained for 2.5 seconds, then quickly returned to −50 mV and maintained for 4 seconds to excite the hERG channel tail current (Peak tail current), the hERG potassium current was recorded every other 10 seconds. Experiment data were collected with EPC-10 amplifier (HEKA) and stored in PatchMaster (HEKA v2x73) software. • Determination: A capillary glass tube (Sutter Instruments) was drawn into a recording electrode with a microelectrode drawing instrument (Sutter Instruments). The cell-loaded cover slip was removed from the 24-well plate placed in the incubator and then placed under an inverted microscope. […] In the whole-cell recording mode, the slow capacitance compensation was performed and the membrane capacitance and the series resistance were recorded, during which the leakage compensation was not applied. After the hERG tail current recorded with the whole cell was stabilized for 3-5 minutes, 8 mL of the compound-free extracellular fluid (blank control) and 8 mL of 3 μM solution of the compound to be tested were sequentially flowed through the recording bath with the gravity perfusion to act on the cells for 5 minutes (or to the current stabilization). The current detected for each cell in the compound-free extracellular fluid was served as its own control. […]

Sequence of hERG potassium ion channel (Q12809 whole entry): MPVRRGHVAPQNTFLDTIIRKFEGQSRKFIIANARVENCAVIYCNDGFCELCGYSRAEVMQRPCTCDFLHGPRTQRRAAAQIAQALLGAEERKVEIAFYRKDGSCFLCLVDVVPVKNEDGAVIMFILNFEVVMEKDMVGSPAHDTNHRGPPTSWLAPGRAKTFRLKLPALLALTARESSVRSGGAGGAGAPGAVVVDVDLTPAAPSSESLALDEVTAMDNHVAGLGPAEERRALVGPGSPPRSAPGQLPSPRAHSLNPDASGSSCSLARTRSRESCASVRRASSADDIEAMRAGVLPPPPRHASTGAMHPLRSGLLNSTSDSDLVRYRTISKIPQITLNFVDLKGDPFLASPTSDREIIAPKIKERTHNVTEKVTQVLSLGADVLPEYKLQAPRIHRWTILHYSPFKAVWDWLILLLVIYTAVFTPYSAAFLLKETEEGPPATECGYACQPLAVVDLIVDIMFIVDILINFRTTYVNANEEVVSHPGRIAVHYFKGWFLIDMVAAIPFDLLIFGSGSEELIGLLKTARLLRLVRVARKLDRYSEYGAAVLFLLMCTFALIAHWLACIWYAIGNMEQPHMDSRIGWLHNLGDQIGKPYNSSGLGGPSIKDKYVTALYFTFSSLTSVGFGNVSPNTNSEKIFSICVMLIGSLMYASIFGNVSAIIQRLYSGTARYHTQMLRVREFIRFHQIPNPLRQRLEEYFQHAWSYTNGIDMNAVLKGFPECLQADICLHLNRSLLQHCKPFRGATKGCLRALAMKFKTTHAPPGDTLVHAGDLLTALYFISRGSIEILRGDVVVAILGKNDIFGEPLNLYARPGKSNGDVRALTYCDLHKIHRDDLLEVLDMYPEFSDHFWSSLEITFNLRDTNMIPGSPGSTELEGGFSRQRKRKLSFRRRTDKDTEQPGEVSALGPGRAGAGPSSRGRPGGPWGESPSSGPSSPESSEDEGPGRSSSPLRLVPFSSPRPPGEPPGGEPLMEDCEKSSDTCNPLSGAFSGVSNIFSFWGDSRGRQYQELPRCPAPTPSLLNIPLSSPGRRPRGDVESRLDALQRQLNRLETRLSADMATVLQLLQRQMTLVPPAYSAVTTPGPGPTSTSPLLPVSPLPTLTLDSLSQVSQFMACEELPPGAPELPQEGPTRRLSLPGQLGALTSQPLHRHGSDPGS

Row | Compound | inhibition at 5 min, 3 µM [%]
1 | C[C@H](c1ccc(COc2cccc3c2CN([C@H]2CCC(=O)NC2=O)C3=O)cc1)N1CCN(c2ccc(C#N)cc2F)CC1 [Compound 6, 4-(4-((R)-1-(4-(((2-((S)-2,6-dioxopiperidin-3-yl)-1-oxoisoindolin-4-yl)oxy)methyl)phenyl)ethyl)piperazin-1-yl)-3-fluorobenzonitrile] | 52
2 | C[C@H](c1ccc(COc2cccc3c2CN([C@H]2CCC(=O)NC2=O)C3=O)cc1)N1CCN(c2ccc(C#N)cn2)CC1 [Compound 16, 6-(4-((R)-1-(4-(((2-((S)-2,6-dioxopiperidin-3-yl)-1-oxoisoindolin-4-yl)oxy)methyl)phenyl)-ethyl)piperazin-1-yl)nicotinonitrile] | 58
3 | C[C@H](c1ccc(COc2cccc3c2CN([C@H]2CCC(=O)NC2=O)C3=O)cc1)N1CCN(c2ccc(C#N)nc2)CC1 [Compound 21, 5-(4-((R)-1-(4-(((2-((S)-2,6-dioxopiperidin-3-yl)-1-oxoisoindolin-4-yl)oxy)methyl)phenyl)ethyl)piperazin-1-yl)-2-cyanopyridine] | 49
4 | C[C@H](c1ccc(COc2cccc3c2CN([C@H]2CCC(=O)NC2=O)C3=O)cc1)N1CCN(c2ncc(C#N)cc2F)CC1 [Compound 22, 6-(4-((R)-1-(4-(((2-((S)-2,6-dioxopiperidin-3-yl)-1-oxoisoindolin-4-yl)oxy)methyl)phenyl)-ethyl)piperazin-1-yl)-5-fluoronicotinonitrile] | 20

From US20230271933A1, “HETEROCYCLIC IMMUNOMODULATOR” (Beijing Innocare Pharma Tech Co., Ltd., priority 2020, published 2023)
